Legend:
NP110SM cells = test: Differentiation of clonal embryonic progenitor line NP110SM in HyStem beads, Illumina microarray gene expression; assay type: cell-based, human; settings: NP110SM; 10 M CL316243 together with 50 ng/ml BMP4 and 5.0 μM rosiglitazone; FIG. 15 lane 9
Description: (§1) Differentiation medium is high glucose DMEM (CellGro Cat. No. 15-013-CV) with Pyruvate, 1 mM (Gibco Cat. 11360), Pen:Strep 100U/ml:100 ug/ml (Gibco Cat. No. 504284), Glutamax 2 mM (Gibco Cat. No. 35050), Dexamethasone 0.1 uM (Sigma, St. Louis, Mo., Cat. No. D1756-100), L-Proline 0.35 mM (Sigma Cat. No. D49752), 2-phospho-L-Ascorbic Acid 0.17 mM (Sigma, Cat. No. 49792, Fluka), and ITS Premix (BD, Franklin Lakes, N.J., sterile Cat. No. 47743-628) with a final concentration 6.25 ug/ml insulin, 6.25 ug/ml transferrin, 6.25 ng/ml selenious acid, serum albumin 1.25 mg/ml, 5.35 ug/ml linoleic acid. In various differentiation conditions, the Differentiation medium is supplemented with various growth factors or other differentiation factors as described herein.
HyStem-C (BioTime, Inc. Alameda, Calif.) is a matrix composed of thiol-modified gelatin and thiolated hyaluronan crosslinked in vivo or in vitro with (polyethylene glycol diacrylate (PEGDA). We observed that clonal human embryonic progenitor cell lines such as those described in the present invention, could be efficiently differentiated in high-density cultures of said crosslinked collagen and hyaluronate in the following manner. HyStem-C® (BioTime, CA, USA) is reconstituted following the manufacturer's instructions. Briefly, the HyStem component (10 mg of thiol-modified hyaluronan) is dissolved in 1.0 ml of degassed deionized water for approximately 20 min to prepare a 1% w/v solution. The Gelin-S® component (10 mg of thiol-modified gelatin (BioTime)) is dissolved in 1.0 ml of degassed deionized water to prepare a 1% w/v solution, and polyethylene glycol diacrylate (10 mg of PEGDA) is dissolved in 0.5 ml of degassed deionized water to prepare a 2% w/v solution. Then, HyStem (1 ml, 1% w/v) is mixed with Gelin-S (1 ml, 1% w/v) immediately before use. Pelleted cells are resuspended in the recently prepared HyStem:Gelin-S (1:1 v/v) mix described above. Upon the addition of the PEGDA cross-linker, the cell suspension, at a final concentration of 2.0×10^7 cells/ml is aliquoted (25 μl/aliquot) into six-well plates (Corning® 3516; VWR, PA, USA) after partial gelation. Following complete gelation (20 min), Differentiation Medium is added to each well. Plates were then placed in a humidified incubator at 37° C. with ambient O2 and 10% CO2, and the cells were fed three-times weekly. At the desired time point, hydrogel constructs were either fixed and processed for immunohistochemical analysis or lysed using RLT (Qiagen, CA, USA) with 1% beta-mercaptoethanol for total RNA to analyze transcript expression using quantitative real-time PCR (qRT-PCR) and/or whole-genome microarray.
(§2) Total RNA was extracted directly from cells growing in 6-well plates or 10 cm tissue culture dishes using Qiagen RNeasy mini kits according to the manufacturer's instructions. RNA concentrations were measured using a Beckman DU530 or Nanodrop spectrophotometer and RNA quality was determined by denaturing agarose gel electrophoresis or using an Agilent 2100 bioanalyzer. Whole-genome expression analysis was carried out using Illumina Human Ref-8v3 or Human HT-12 v4 BeadArrays, and RNA levels for certain genes were confirmed by qRT-PCR. For the Illumina BeadArrays, total RNA was linearly amplified and biotin-labeled using Illumina TotalPrep kits (Life Technologies, Temecula, Calif., USA), and cRNA was quality-controlled using an Agilent 2100 Bioanalyzer. The cRNA was hybridized to Illumina BeadChips, processed, and read using a BeadStation array reader according to the manufacturer's instructions (Illumina, San Diego, Calif., USA). Values of less than 120 relative fluorescence units (RFUs) were considered as nonspecific background signal.
The line NP110SM was then exposed to differentiation in the BAT cell differentiation protocols described herein. […]

cell line E72 = test: Differentiation of cell line E72 in HyStem, gene expression; assay type: cell-based, human; settings: E72 passage 11; HyStem-C supplemented with 1.0 uM all-trans retinoic acid
Description: HyStem-C (BioTime, Inc. Alameda, Calif.) (BioTime, Alameda, Calif., USA) was reconstituted following the manufacturer's instructions. Briefly, the HyStem component (thiol modified hyaluronan, 10 mg) was dissolved in 1.0 ml degassed deionized water for about 20 minutes to prepare a 1% w/v solution. The Gelin-S component (thiol modified gelatin, 10 mg) was dissolved in 1 ml degassed deionized water to prepare a 1% w/v solution, and PEGDA (PEG diacrylate, 10 mg) was dissolved in 0.5 ml degassed deionized water to prepare a 2% w/v solution. HyStem (1 ml, 1% w/v) was mixed with Gelin-S (1 ml, 1% w/v) immediately before use. Pelleted cells were resuspended in recently prepared HyStem:Gelin-S (1:1 v/v) mix described above. Upon the addition of crosslinker PEGDA, the cell suspension, at a final concentration of 2.0×10^7 cells/ml, was aliquoted at 25 μl aliquot four to five times into each well of 6 well plates (Corning 3516) after partial gelation to form attached beads. Following complete gelation (20 minutes), chondrogenic medium was added to each well (i.e about 4 ml/each well of a 6 well plate). […]
The Gelin-S® component (10 mg of thiol-modified gelatin (BioTime)) is dissolved in 1.0 ml of degassed deionized water to prepare a 1% w/v solution, and polyethylene glycol diacrylate (10 mg of PEGDA) is dissolved in 0.5 ml of degassed deionized water to prepare a 2% w/v solution. […] At the desired time point, hydrogel constructs were either fixed and processed for immunohistochemical analysis or lysed using RLT (Qiagen, CA, USA) with 1% beta-mercaptoethanol for total RNA to analyze transcript expression using quantitative real-time PCR (qRT-PCR) and/or whole-genome microarray.
Total RNA was extracted directly from cells growing in 6-well plates or 10 cm tissue culture dishes using Qiagen RNeasy mini kits according to the manufacturer's instructions. RNA concentrations were measured using a Beckman DU530 or Nanodrop spectrophotometer and RNA quality was determined by denaturing agarose gel electrophoresis or using an Agilent 2100 bioanalyzer. […] The cRNA was hybridized to Illumina BeadChips, processed, and read using a BeadStation array reader according to the manufacturer's instructions (Illumina, San Diego, Calif., USA).

cell line E3 = test: Differentiation of clonal hEP cell line E3 in HyStem beads, Illumina microarray gene expression; assay type: cell-based, human
Description: as §1
(§3) The Gelin-S® component (10 mg of thiol-modified gelatin (BioTime)) is dissolved in 1.0 ml of degassed deionized water to prepare a 1% w/v solution, and polyethylene glycol diacrylate (10 mg of PEGDA) is dissolved in 0.5 ml of degassed deionized water to prepare a 2% w/v solution. Then, HyStem (1 ml, 1% w/v) is mixed with Gelin-S (1 ml, 1% w/v) immediately before use. Pelleted cells are resuspended in the recently prepared HyStem:Gelin-S (1:1 v/v) mix described above. Upon the addition of the PEGDA cross-linker, the cell suspension, at a final concentration of 2.0×10^7 cells/ml is aliquoted (25 μl/aliquot) into six-well plates (Corning® 3516; VWR, PA, USA) after partial gelation. Following complete gelation (20 min), Differentiation Medium is added to each well. Plates were then placed in a humidified incubator at 37° C. with ambient O2 and 10% CO2, and the cells were fed three-times weekly. At the desired time point, hydrogel constructs were either fixed and processed for immunohistochemical analysis or lysed using RLT (Qiagen, CA, USA) with 1% beta-mercaptoethanol for total RNA to analyze transcript expression using quantitative real-time PCR (qRT-PCR) and/or whole-genome microarray.
as §2

[1] = system: Bone marrow-derived mesenchymal stem cells (MSCs); test: Differentiation of bone marrow-derived MSCs in HyStem-C beads, FABP4 expression; assay type: cell-based; settings: 14 days, 50 ng/mL BMP2, or 10 ng/mL BMP4, or 100 ng/mL BMP7
Description: as §3

`C[C@H](Cc1ccc2c(c1)OC(C(=O)[O-])(C(=O)[O-])O2)NC[C@H](O)c1cccc(Cl)c1.[Na+].[Na+]` [CL316243, reference compound] was tested, and the UCP1 expression (NP110SM cells) was “appeared to further increase”.

With `CC1=C(/C=C/C(C)=C/C=C/C(C)=C/C(=O)O)C(C)(C)CCC1` [all-trans retinoic acid, reference compound] the “expression of HOXB6, a marker of lateral plate mesenchyme” value (cell line E72) was “induced the expression of HOXB6”.

In the case of `O=C(Nc1ccncc1)c1cc([N+](=O)[O-])ccc1Cl` [T0070907, reference compound], the C19ORF80 expression (cell line E3; HyStem with 10 ng/ml BMP4 plus T0070907, compared to HyStem BMP4 alone, cell line not restated) is reported as “decreased C19ORF80 expression” and the THRSP expression (cell line E3; presence of the PPARγ antagonist T0070907, FIG. 7, cell line not restated) is reported as “decreased to nearly undetectable levels”.

For `CN(CCOc1ccc(CC2SC(=O)NC2=O)cc1)c1ccccn1` (stereo not drawn) [rosiglitazone, reference compound], the ADIPOQ transcript expression (cell line E3; E3, HyStem beads with 1.0 μM rosiglitazone, FIG. 3) was > 5,000 RFUs and the UCP1 transcript expression (cell line E3; E3, HyStem beads, 1.0 μM rosiglitazone in combination with 100 ng/ml BMP7, values greater than 160 RFUs above background) was 161 RFUs.

B1: BMP7: Bone Morphogenetic Protein 7, TGF-beta superfamily member (protein, UniProt P18075 293-431, looked up)
Bone morphogenetic protein 7: STGSKQRSQNRSKTPKNQEALRMANVAENSSSDQRQACKKHELYVSFRDLGWQDWIIAPEGYAAYYCEGECAFPLNSYMNATNHAIVQTLVHFINPETVPKPCCAPTQLNAISVLYFDDSSNVILKKYRNMVVRACGCH
In the case of B1, the PCK1 transcript expression (cell line E3; E3, HyStem beads with 10 ng/ml BMP4 or 100 ng/ml BMP7, FIG. 5) is reported as “relatively high levels”, the “expression of C19ORF80” value (cell line E3; E3, HyStem supplemented with 100 ng/ml BMP7) is reported as “highest expression” and the “differentiation into adipocytes as evidenced by expression of FABP4” value [1] is reported as “caused the differentiation of the cells into adipocytes”.
